Results from patent publication US5085992A, “Microbial transformation process for antihypertensive products” (Merck & Co., Inc., priority 1991, dated 1992).

Biological target: T1, Angiotensin II (A II) receptor (Oryctolagus cuniculus, UniProt P34976)
T1 construct: tissue Pel-Freeze Biologicals; host or cells: rabbit aorta, membrane preparation (frozen aortae)
T1 sequence (P34976 1-359): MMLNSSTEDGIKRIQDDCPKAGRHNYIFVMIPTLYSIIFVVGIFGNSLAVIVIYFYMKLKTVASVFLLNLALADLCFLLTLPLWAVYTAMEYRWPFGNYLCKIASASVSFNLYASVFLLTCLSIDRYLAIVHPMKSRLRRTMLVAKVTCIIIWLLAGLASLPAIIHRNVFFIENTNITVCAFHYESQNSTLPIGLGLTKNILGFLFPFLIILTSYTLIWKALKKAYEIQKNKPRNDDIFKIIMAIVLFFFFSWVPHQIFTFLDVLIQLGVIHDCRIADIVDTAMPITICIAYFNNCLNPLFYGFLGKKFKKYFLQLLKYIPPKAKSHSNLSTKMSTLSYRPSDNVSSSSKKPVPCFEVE
Experiment: Receptor binding assay using rabbit aortae membrane preparation ("IC50" assay; displacement of 125I-Sar1 Ile8-angiotensin II)
Conditions: membrane preparation derived from rabbit aortae; 37° C., 90 minutes; read-out: inhibitory concentration (IC50) giving 50% displacement of the total specifically bound 125I-Sar1 Ile8-angiotensin II
Protocol: This assay is also referred to herein as the "IC 50 "assay.
RECEPTOR BINDING ASSAY USING RABBIT AORTAE MEMBRANE PREPARATION
Three frozen rabbit aortae (obtained from Pel-Freeze Biologicals) were suspended in 5 mM Tris-0.25 M Sucrose, pH 7.4 buffer (50 ml) homogenized, and then centifuged. The mixture was filtered through a cheesecloth and the supernatant was centrifuged for 30 minutes at 20,000 rpm at 4° C. The pellet thus obtained was resuspended in 30 ml of 50 mM Tris-5 mM MgCl2 buffer containing 0.2% Bovine Serum Albumin and 0.2 mg/ml Bacitration and the suspension was used for 100 assay tubes. Samples tested for screening were done in duplicate. To the membrane preparation (0.25 ml) there was added ^125 I-Sar^1 Ile^8 -angiotensin II [obtained from New England Nuclear] (10 ul; 20,000 cpm) with or without the test sample and the mixture was incubated at 37° C. for 90 minutes. The mixture was then diluted with ice-cold 50 mM Tris-0.9% NaCl, pH 7.4 (4 ml) and filtered through a glass fiber filter (GF/B Whatman 2.4" diameter). The filter was soaked in scintillation cocktail (10 ml) and counted for radioactivity using Packard 2660 Tricarb liquid scintillation counter. […]

`CCc1nc2c(C)cc(C)nc2n1Cc1ccc(-c2ccccc2-c2nnn([C@@H]3O[C@H](C(=O)O)[C@@H](O)[C@H](O)[C@H]3O)n2)cc1` [compound (I)] showed an IC50 of under 50 µM.
